Source: patent publication US20030078212A1, “PHARMACEUTICAL COMPOSITIONS CONTAINING POLY(ADP-RIBOSE) GLYCOHYDROLASE INHIBITORS AND METHODS OF USING THE SAME” (priority 1998, published 2003)
One block for each molecule: values may come before it.

Assays:
[1] = system: ischemia and reperfusion of the heart; conditions: rabbits, cited from earlier work
[2] = system: endotoxic shock; conditions: cited from earlier work
[3] = system: cell viability, glucose metabolism, and DNA synthesis; conditions: cited from earlier work
[4] = system: human fibroblast cells lines (W138 or BJ cells); assay: Extending proliferative capacity and lifespan of cells; format: cell-based
Method: At the time of subdivision, the media is aspirated, and the cells rinsed with phosphate buffer saline (PBS) and then trypsinized. The cells are counted with a Coulter counter and plated at a density of 10^5 cells per cm^2 in 6-well tissue culture plates in DMEM/199 medium supplemented with 10% bovine calf serum and varying amounts (0.10 μM, and 1 mM: from a 100×stock solution in DMEM/M199 medium) of a PARG inhibitor. This process is repeated every 7 days until the cell appear to stop dividing. The untreated (control) cells reach senescence and stop dividing after about 40 days in culture. […] The cells treated with 1 mM 3-AB will still divide after 60 days in culture.

[5] = system: Colitis; conditions: rats; colitis by trinitrobenzene sulfonic acid in 50% ethanol; cited from earlier work

SMILES: Oc1cccc2c(O)nccc12 [1,5-dihydroxyisoquinoline]
reduction in infarct size ([1]; 1 mg/kg): 38-48%

SMILES: NC(=O)c1cccnc1 [nicotinamide]
delayed, NO-mediated vascular failure [2]: protects against delayed, NO-mediated vascular failure in endotoxic shock

SMILES: NC(=O)c1cccc(N)c1 [3-aminobenzamide]
additional metabolic effects (side effects) [3]: affect cell viability, glucose metabolism, and DNA synthesis
effect on lifespan of the cells ([4]; 10 μM): little or no effect
effect on lifespan of the cells ([4]; 100 μM): lengthen the lifespan of the cells
effect on lifespan and proliferative capacity of the cells ([4]; 1 mM): dramatically increases the lifespan and proliferative capacity of the cells
time in culture at which cells still divide ([4]; 1 mM, untreated cells stop dividing after about 40 days): > 60 days
reduction in infarct size in the heart ([1]; single injection 10 mg/kg, one minute before occlusion or one minute before reperfusion): 32-42%
inflammatory response, morphology and energetic status of the distal colon [5]: reduced the inflammatory response and restored the morphology and the energetic status of the distal colon

SMILES: NC(=O)c1ccccc1 [benzamide]
additional metabolic effects (side effects) [3]: affect cell viability, glucose metabolism, and DNA synthesis

melting point: 85 to 90 °C
SMILES: COc1cc(C(=O)OC[C@H]2OC(OC(=O)c3cc(OC)c(OC)c(OC)c3)[C@H](OC(=O)c3cc(OC)c(OC)c(OC)c3)[C@@H](OC(=O)c3cc(OC)c(OC)c(OC)c3)[C@@H]2OC(=O)c2cc(OC)c(OC)c(OC)c2)cc(OC)c1OC (stereo partly drawn) [Example 4, 1,2,3,4,6-Penta-O-(3,4,5-Trimethoxybenzoyl)-D-Glucopyranose]
